Reference: paper PMC9131275, “Drug-induced self-assembled nanovesicles for doxorubicin resistance reversal via autophagy inhibition and delivery synchronism” (Theranostics, 2022)
Counter-ions that a name gives are not always drawn. Like-named read-outs stand apart in the source and are kept apart here.

Legend:
K562 cells = test: Cytotoxicity by CCK-8 kit, 48 h; format: cell-based; conditions: Homo sapiens
Procedure: (§1) The cytotoxicity of free DOX·HCl, free CQ, physical mixture of free DOX·HCl and CQ (DC), physical mixture of PPAP and cholesteryl hemisuccinate (PPAP/C) and drug-loaded nanovesicles on MCF-7 cells, MCF-7/ADR cells, K562 cells or K562/ADR cells was investigated at 48 h via CCK-8 kit. Accordingly, the reversal index (RI) of DOX·HCl for MCF-7/ADR cells and K562/ADR cells was calculated using the following formula: RI = […]. The combination index (CI) between DOX⋅HCl and CQ at different ratios was calculated as follows: CI = D1/(Dm)1 + D2/(Dm)2 + D1*D2/(Dm)1*(Dm)2, where D1 and (Dm)1 represent the IC50 values of DOX⋅HCl applied in combination or alone, respectively, and D2 and (Dm)2 represent the IC50 values of CQ applied in combination or alone, respectively. In addition, apoptosis analysis was implemented using the Annexin V-FITC/PI kit (LianKe, China) based on the kit instructions. The details were provided by Supplementary Material (Supplementary section 1). […]
(§2) Cytotoxicity and annexin V-FITC/PI apoptosis assay
(§3) To investigate the cytotoxicity of free DOX·HCl, free CQ, physical mixture of free DOX·HCl and CQ, PPAP/C and drug-loaded nanovesicles, various cell lines (MCF-7, […]
(§4) cells/well, respectively, and cultured in RPMI 1640 containing 10 % fetal bovine serum […]
(§5) at 37 °C with 5 % CO2. After 24 h, cells were exposed to increasing concentrations of different formulations for 48 h. Then, 10 µL of CCK-8 reagent was added to each well and the plates were incubated for 2 h. And the absorbency was determined by a microplate reader (Thermo, USA) at 450 nm. […]
(§6) Afterwards, rhodamine 123 (2 µg/mL) was incubated with these cells for 30 […]
(§7) minutes at 37°C . […]
(§8) 104 cells was collected for each sample at the appropriate period.

MCF-7 cells = test: Cytotoxicity by CCK-8 kit, 48 h; format: cell-based; conditions: Homo sapiens
Procedure: as §1, §2, §3, §4, §5, §6, §7, §8

MCF-7/ADR cells [1] = test: Annexin V-FITC/PI apoptosis assay; format: cell-based, human; conditions: 5 μg/mL DOX·HCl and/or 10 µg/mL CQ, 48 h
K562/ADR cells [2] = test: Annexin V-FITC/PI apoptosis assay; format: cell-based, human; conditions: 5 μg/mL DOX·HCl and/or 10 µg/mL CQ, 48 h
P-gp = biological target: T1, P-gp (Homo sapiens, UniProt P08183); test: P-gp functional activity (rhodamine 123 accumulation, flow cytometry); format: cell-based; conditions: MCF-7/ADR and K562/ADR cells, increasing CQ concentrations
T1 construct: the extremely high expression of P-gp existed in MCF-7/ADR cells and K562/ADR cells; host or cells: MCF-7/ADR and K562/ADR cells
Procedure: as §5, with “nm. Data are reported as means of triplicate” for “nm.”
The apoptosis analysis was further investigated. Briefly, MCF-7/ADR or K562/MDR cells (2 × 10^5 cells/well) were seeded in 12-well plates and incubated overnight in RPMI 1640 containing 10 % fetal bovine serum. Afterwards, the cells were incubated with various formulations for 48 h at the final DOX·HCl and CQ concentration of 5 and 10 µg/mL, respectively. The cells were treated according to the kit instructions and analyzed by flow cytometry.
P-gp functional activity evaluation
Flow cytometry analysis was used to investigate the effect of CQ on the functional activity of P-gp through monitoring the intracellular uptake of rhodamine 123, namely, a kind of P-gp substrate. Specifically, MCF-7/ADR cells and K562/ADR cells (2 × 10^5 cells/well) were seeded in 12-well plates, respectively. […] Then the cell suspension was analyzed by flow cytometry with the 488 nm argon ion laser. Also, the individual fluorescence of 104 cells was collected for each sample at the appropriate period.

[3] = ref [20], [21]; cited from earlier work
MCF-7/ADR cells [4] = test: Cytotoxicity by CCK-8 kit, 48 h; format: cell-based, human
Procedure: (§10) Accordingly, the reversal index (RI) of DOX·HCl for MCF-7/ADR cells and K562/ADR cells was calculated using the following formula: RI = IC50 of the test formulation / IC50 of free DOX·HCl.
(§11) at 37 °C with 5 % CO2. After 24 h, cells were exposed to increasing concentrations of different formulations for 48 h. Then, 10 µL of CCK-8 reagent was added to each well and the plates were incubated for 2 h. And the absorbency was determined by a microplate reader (Thermo, USA) at 450 nm. Data are reported as means of triplicate

K562/ADR cells [5] = test: Cytotoxicity by CCK-8 kit, 48 h; format: cell-based, human
Procedure: as §10, §11

K562/ADR tumors = test: In vivo anti-tumor activity; design: species or system BALB/c nude mice; conditions: K562/ADR tumor-bearing nude mice, i.v. at 0, 2, 4 and 6 days, Day 16
Procedure: (§9) The BALB/c nude mice were subcutaneously inoculated with K562/ADR cells (2×10^7 cells) on the right flank to construct K562/ADR tumor-bearing mice models. After 10 days, mice were randomly divided into seven groups (n = 5) once the tumors reached about 80 mm^3. And then various formulations were injected intravenously through the tail vein every other day for four times and saline was taken as the control group. […] Later, the mice were sacrificed and the tumors were excised and weighted. In addition, tumors and major organs (heart, liver, spleen, lung, and kidney) were collected for slice analysis by hematoxylin and eosin (H&E) staining. The tumors were also analyzed by immunohistochemical detection of Ki67, immunofluorescence assay of LC3 and terminal deoxynucleotidyl transferased dUTP nick end labeling (TUNEL) assay.

[6] = mouse, in vivo
Procedure: as §9

T1 sequence (P08183 whole entry): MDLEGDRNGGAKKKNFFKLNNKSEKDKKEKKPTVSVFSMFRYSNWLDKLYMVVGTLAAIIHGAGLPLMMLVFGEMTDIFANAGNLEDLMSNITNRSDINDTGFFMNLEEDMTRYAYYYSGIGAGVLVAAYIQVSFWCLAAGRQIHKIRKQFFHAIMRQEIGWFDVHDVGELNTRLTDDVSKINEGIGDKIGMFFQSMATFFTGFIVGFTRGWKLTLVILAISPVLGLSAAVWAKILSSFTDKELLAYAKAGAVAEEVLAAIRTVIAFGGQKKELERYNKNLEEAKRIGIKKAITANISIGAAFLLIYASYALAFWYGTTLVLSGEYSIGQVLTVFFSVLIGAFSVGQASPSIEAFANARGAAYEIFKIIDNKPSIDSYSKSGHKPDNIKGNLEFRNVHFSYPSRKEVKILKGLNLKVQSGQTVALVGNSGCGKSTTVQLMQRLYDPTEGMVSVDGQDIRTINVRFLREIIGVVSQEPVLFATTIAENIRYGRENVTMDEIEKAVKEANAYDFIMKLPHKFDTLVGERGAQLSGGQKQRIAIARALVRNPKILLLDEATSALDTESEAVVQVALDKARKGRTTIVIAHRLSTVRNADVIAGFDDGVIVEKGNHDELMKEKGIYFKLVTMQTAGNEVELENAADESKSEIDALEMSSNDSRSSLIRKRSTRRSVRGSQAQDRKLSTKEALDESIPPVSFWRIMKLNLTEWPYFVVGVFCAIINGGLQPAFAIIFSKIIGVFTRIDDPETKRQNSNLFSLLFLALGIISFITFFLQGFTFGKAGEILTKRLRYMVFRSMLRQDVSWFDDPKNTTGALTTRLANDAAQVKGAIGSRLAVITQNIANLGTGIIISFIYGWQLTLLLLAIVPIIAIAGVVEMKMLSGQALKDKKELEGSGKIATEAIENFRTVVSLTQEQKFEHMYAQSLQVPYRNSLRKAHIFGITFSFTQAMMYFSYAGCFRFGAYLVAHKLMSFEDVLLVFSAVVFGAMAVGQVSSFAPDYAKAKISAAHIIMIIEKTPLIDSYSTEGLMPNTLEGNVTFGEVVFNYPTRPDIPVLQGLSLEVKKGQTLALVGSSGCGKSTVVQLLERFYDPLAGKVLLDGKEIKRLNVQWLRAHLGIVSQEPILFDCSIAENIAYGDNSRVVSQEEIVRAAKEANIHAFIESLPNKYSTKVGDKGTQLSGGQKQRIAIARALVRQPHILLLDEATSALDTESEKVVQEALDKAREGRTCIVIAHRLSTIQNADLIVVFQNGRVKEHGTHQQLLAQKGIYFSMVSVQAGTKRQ

effect on efflux activity of P-gp (rhodamine 123 accumulation) (P-gp)	SMILES	IC50 (K562 cells; K562, 48 h)	IC50 (MCF-7 cells; MCF7, 48 h)	Apoptosis rate (MCF-7/ADR cells [1])	Apoptosis rate (K562/ADR cells [2])	plasma protein binding rate [3]	IC50 (MCF-7/ADR cells [4]; Homo sapiens, NCI/ADR-RES, MCF-7/ADR cells, 48 h, read-out: IC50 of DOX·HCl)	DOX·HCl-resistance index (MCF-7/ADR cells [4]; MCF-7/ADR cells vs sensitive cells)	IC50 (K562/ADR cells [5]; Homo sapiens, K562/ADR cells, 48 h, read-out: IC50 of DOX·HCl)	DOX·HCl-resistance index (K562/ADR cells [5]; K562/ADR cells vs sensitive cells)	IC50 (K562 cells; K562 cells, within 48 h, read-out: IC50)	IC50 (MCF-7 cells; MCF7, MCF-7 cells, within 48 h, read-out: IC50)	tumor inhibition rate (TIR) (K562/ADR tumors)	body weight change during treatment [6]	histopathological abnormalities of hearts (H&E) [6]
can inhibit the efflux activity of P-gp	CCN(CC)CCCC(C)Nc1ccnc2cc(Cl)ccc12 (centres unmarked) [CQ, Chloroquine]	17.4 ± 1.34 µg/mL	23.9 ± 0.42 µg/mL	33.64%	40.17%	60%									
	COc1cccc2c1C(=O)c1c(O)c3c(c(O)c1C2=O)C[C@@](O)(C(=O)CO)C[C@@H]3O[C@H]1C[C@H](N)[C@H](O)[C@H](C)O1 [DOX·HCl, Doxorubicin hydrochloride]			40.83%	42.56%		72.1 µg/mL	902 fold	18.9 µg/mL	126 fold	0.15 ± 0.06 µg/mL	0.08 ± 0.01 µg/mL	28.80%	sharp decrease in body weight	severe histopathological abnormalities and lesions in the cardiac muscles
